Experimental findings from US20050191252A1, “Skin beautification cosmetic system using iontophoresis device, ultrasonic facial stimulator, and cosmetic additive” (priority 2004, published 2005) are described below.

Read-outs that look alike come from different tables or passages of the source.

A short description of data set [1]: Vitamin C osmosis comparison using autoradiography (Test Example 3). In kind it is in vivo, hairless rat. The source says:
Vitamin C osmosis comparison using autoradiography.
These figures (photographs) display a cross-section of rat skin tissue, wherein black dots in the epidermis and dermis indicate vitamin C.

A short description of data set [2]: Vitamin C osmosis into the human skin (Test Example 1), iontophoretic introduction, HPLC of epidermis and dermis. The conditions noted are these: human thigh skin, five hours after five minutes iontophoretic introduction.
Method: <Experiment Procedure> • (1) Vitamin C was iontophoretically introduced for five minutes. • (2) After five hours, 5 mm of the skin was punched, separated into epidermis and dermis, and freeze dried. • (3) The Vitamin C concentration in the epidermis and dermis was determined by HPLC. • 1) The freeze dry samples were dissolved in 500 □1 of a moving layer solvent. • 2) The solution was ultrasonically treated for 10 minutes, • 3) filtered through a 0.2 mm filter, and • 4) subjected to HPLC measurement.
Moving layer: A 0.08 M CH3COOH—CH3COONa buffer solution (pH 5.0) containing 2.8 mM Mn-hexyl amine, 0.1 mM disodium edetate, and 2% methanol. • Measuring amount: 20 □1 • Flow rate: 0.8 ml/min. • Wavelength: 254 nm • Column: ODS column oven: 40° C.
For data set [3] the following is noted: rat, in vivo.
Method: The present inventor introduced a 0.1% diluted solution of C-ascorbic acid (hereinafter referred to as Vitamin C) into the back skin of a rat by simple external application and iontophoresis to compare osmosis of vitamin C using a scintillation counter and autoradiography.
A 0.1% vitamin C solution was applied to the back skin of a hairless rat for 20 seconds by iontophoresis or for 10 minutes by simple external application. Tissue samples were collected at prescribed intervals (Samples of iontophoresis application: control, 0.5 h, 1 h, 2 h, 3 h, and 6 h; samples of simple external application: control, 1 h, 2 h, 3 h, and 6 h). Each collected sample was cut into two pieces, one of which was separated into epidermis and dermis for use as a scintillation counter sample. A lyophilized section was prepared from the other piece of the sample and developed for autoradiography analysis. The vitamin C concentration in each tissue was determined using IR analysis.

For `O=C1O[C@H]([C@@H](O)CO)C(O)=C1O` [Vitamin C, C-ascorbic acid], the “penetration from the epidermis into the dermis (autoradiography)” value in data set [1] (iontophoresis application, rat back skin (FIG. 7)) is “started to penetrate at 0.5 hour and more abundantly after one hour”; in data set [1] (simple external application, rat back skin (FIG. 6)), “progressively penetrated from the epidermis into the dermis over time”. In addition, the “Dermis (ppm), Vitamin C concentration” value in data set [2] was 0.05 ppm. Further, the “Epidermis (ppm), Vitamin C concentration” value in data set [2] is listed as 0.02 ppm. Moreover, the “osmosis by iontophoresis application relative to simple external application” value in data set [3] (hairless) is reported as “about 30 times”. The “time at which concentration reached maximum” value in data set [3] (hairless) is 0.5 h; in data set [3] it was “one”.
